# Values quoted from earlier work, collected in patent US20100136096A1, “Systems for modulating inflammation” (Searete LLC, a limited liability corporation of the State …, priority 2008, published 2010).
# Assays:
# [1] = tested on: Src family kinase; conditions: Sanjuan et al. 2006
# [2] = tested on: lethal septic shock; conditions: mice; Nakamura et al. 2007
# [3] = single agent, 400 mg infused over one hour; Looareesuwan et al. 1986
# [4] = tested on: Src family kinases (Src, Lck, Yes, Fyn); conditions: at nanomolar concentrations
# [5] = tested on: aldehyde dehydrogenase
# [6] = tested on: proteasomal activity; conditions: cultured breast cancer cells; disulfiram bound to copper; Chen et al. 2006
smiles,measurement,setting,value
CCN(CC)CCCC(C)Nc1ccnc2cc(Cl)ccc12 (stereo not drawn) [Chloroquine],"inhibition of CpG-induced Src family kinase activation, or its dependent cellular responses",[1],does not inhibit
"Cl.Cl.Nc1ccccc1Oc1ccc2c(N)nsc2c1 [Example M62812, 3-amino-6-(2-aminophenoxy)-1,2-benzisothiazole dihydrochloride]",prevention of lethal septic shock,[2],prevents lethal septic shock
"CCN(CC)CCCC(C)Nc1ccnc2cc(Cl)ccc12.O=P(O)(O)O.O=P(O)(O)O (stereo not drawn) [chloroquine phosphate, 7-chloro-4-[[4-(diethylamino)-1-methylbutyl]amino]quinoline phosphate (1:2)]",tolerability of intravenous infusion,[3],without complication
"Cc1nc(Nc2ncc(C(=O)Nc3c(C)cccc3Cl)s2)cc(N2CCN(CCO)CC2)n1.O [dasatinib, N-(2-chloro-6-methylphenyl)-2-[[6-[4-(2-hydroxyethyl)-1-piperazinyl]-2-methyl-4-pyrimidinyl]amino]-5-thiazolecarboxamide, monohydrate]","inhibition of Src family kinases (Src, Lck, Yes, Fyn)",[4],inhibits
"CCN(CC)C(=S)SSC(=S)N(CC)CC [disulfiram, 1-(diethylthiocarbamoyldisulfanyl)-N,N-diethyl-methanethioamide]",inhibition of aldehyde dehydrogenase,[5],inhibits aldehyde dehydrogenase without toxicity
same,proteasomal activity,[6],inhibits proteasomal activity
